# Test results reported in patent US20260174786A1, “A NITROGEN-CONTAINING SPIROCYCLIC COMPOUND, PHARMACEUTICAL COMPOSITION AND USE THEREOF” (Prime Gene Therapeutics Co., Ltd., priority 2022, published 2026).
# Molecular target: T1, hTRPV3 (Homo sapiens, UniProt Q8NET8)
# T1 construct: expressed in transfected cells; host or cells: HEK-293
# T1 sequence (Q8NET8 1-790): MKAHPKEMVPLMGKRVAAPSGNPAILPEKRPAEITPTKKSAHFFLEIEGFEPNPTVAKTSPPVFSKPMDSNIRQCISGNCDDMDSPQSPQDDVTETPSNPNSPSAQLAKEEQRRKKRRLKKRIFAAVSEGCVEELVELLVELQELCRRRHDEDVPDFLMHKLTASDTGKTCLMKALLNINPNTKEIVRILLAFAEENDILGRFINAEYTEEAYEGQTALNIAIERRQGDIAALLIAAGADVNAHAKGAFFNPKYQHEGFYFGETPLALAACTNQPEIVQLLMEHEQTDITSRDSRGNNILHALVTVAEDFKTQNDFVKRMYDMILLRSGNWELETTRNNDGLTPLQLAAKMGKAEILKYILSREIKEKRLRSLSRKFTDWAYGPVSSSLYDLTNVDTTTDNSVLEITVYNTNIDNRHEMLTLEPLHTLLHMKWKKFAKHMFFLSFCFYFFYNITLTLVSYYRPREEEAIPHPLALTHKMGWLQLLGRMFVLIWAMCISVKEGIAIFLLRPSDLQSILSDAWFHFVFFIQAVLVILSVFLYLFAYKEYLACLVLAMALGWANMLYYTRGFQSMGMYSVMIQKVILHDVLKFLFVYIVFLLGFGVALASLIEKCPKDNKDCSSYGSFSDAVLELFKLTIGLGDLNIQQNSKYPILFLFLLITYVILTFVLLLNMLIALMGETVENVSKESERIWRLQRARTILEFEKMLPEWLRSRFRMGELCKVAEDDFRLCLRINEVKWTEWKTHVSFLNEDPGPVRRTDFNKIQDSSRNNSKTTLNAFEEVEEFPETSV
# Assay: Whole cell patch clamp inhibition rate test on HEK-293 cells instantaneously expressing TRPV3
# Assay type: cell-based
# Details: HEK293; hTRPV3, single concentration 0.3 μM
# Protocol: In this study, HEK-293 cells instantaneously expressing TRPV3 were used for experimental detection.
# The operation steps are as follows:
# The cells were cultured in DMEM medium containing 10% fetal bovine serum at a temperature of 37° C. and a carbon dioxide concentration of 5%.
# Day 1: Cells were inoculated into a 6-well plate with 5×10^5 cells per well.
# Day 2: Transfection was performed using Lipofectamine 3000 transfection reagent, with a plasmid to transfection reagent ratio of 1 μg: 2 μL. The total amount of plasmid used per well was 3 μg. Specifically, two sterile centrifuge tubes were taken and 100 μL Opti-MEM was added to each tube. 6 μL Lipofectamine 3000 was added to one tube and mixed well; and 3 μg plasmid was added to another tube and mixed well, and then 6 μL P3000 was added and mixed well; Subsequently, the diluted plasmid DNA was added to diluted Lipofectamine 3000 and incubated at room temperature for 10-15 min. DNA liposome complex was dropped into the cells, shaked gently and mixed well, and then cultured in an incubator. The liquid was changed after 4 to 6 h.
# Day 3: The cells were digested and seeded into 24 well plates with pre-placed cover slides, with 8×10^3 cells per well.
# Day 4: Patch clamp testing was performed.
# The voltage stimulation protocol for recording TRPV3 current using whole cell patch clamp is as follows: after forming a whole cell seal, a cell membrane voltage clamp was set at −80 mV. Firstly, a membrane potential was recorded at 0 mV, and then a voltage was command to start from −100 mV, to depolarize in the form of Ramp to 100 mV within 100 ms, and finally restore to 0 mV. Data collection was repeated every 5 seconds to observe the inhibitory effect of pharmaceutical on peak current. Experimental data was collected by EPC 10 amplifier (HEKA) and stored in PatchMaster (HEKA) software.
# A microelectrode puller was used to pull the capillary glass tube into a recording electrode. The electrode filled with intracellular fluid was inserted into a microelectrode holder, and a microelectrode manipulator was operated under an inverted microscope to immerse the electrode in extracellular fluid and an electrode resistance (Rpip) was recorded. The electrode was brought into contact with the cell surface and a negative pressure suction was applied to form a high resistance seal (GΩ). At this point, a fast capacitance compensation was performed, and negative pressure was continued to apply in order to break the cell membrane, so that a whole cell recording mode was formed. Then, a slow capacitance compensation was performed and experimental parameters such as film capacitance (Cm) and series resistance (Rs) were recorded. No leakage compensation was provided.
# When the TRPV3 current recorded by the whole cell had stabilized, administration was started. Each pharmaceutical concentration acted for 5 minutes (or until the current stabilized) before detecting the next concentration. A plurality of concentrations was tested for each test compound. A cover glass covered with cells was placed in a recording bath under an inverted microscope. A blank control extracellular solution and a working fluid for the compound to be tested sequentially flowed through the recording bath from low concentration to high concentration using gravity perfusion to act on the cells. Liquid exchange was performed using a peristaltic pump during recording. The current detected by each cell in the extracellular fluid without the compound served as its own control group. Each concentration was independently tested twice using at least two cells. All electrophysiological tests were conducted at room temperature.
row,inhibition at 0.3 µM,SMILES
1,< 25%,"Cc1nc(C(=O)N2CCC3(CC(O)c4cc(-c5ccccc5C5CC5)ccc43)C2)ccc1O (stereo not shown) [Example 13, (5-(2-cyclopropylphenyl)-3-hydroxy-2,3-dihydrospiro[indene-1,3′-pyrrolidine]-1′-yl)(5-hydroxy-6-methylpyridin-2-yl) ketone]"
2,< 25%,"COCc1cccc(C(=O)N2CCC3(CC(O)c4cc(-c5ccccc5C5CC5)ccc43)C2)n1 (stereo not shown) [Example 47, (5-(2-cyclopropylphenyl)-3-hydroxy-2,3-dihydrospiro[indene-1,3′-pyrrolidine]-1′-yl)(6-(methoxymethyl)pyridin-2-yl) ketone]"
3,< 25%,"CC(C)c1ccccc1[S+]([O-])c1ccc2c(c1)C(O)CC21CCN(C(=O)c2ccc(F)cn2)C1 (stereo not shown) [Example 107, (5-fluoropyridin-2-yl)(3-hydroxy-5-((2-isopropylphenyl)sulfoxide)-2,3-dihydrospiro[indene-1,3′-pyrrolidine]-1′-yl) ketone]"
4,70 to 100%,"[2H]C1(O)CC2(CN(C(=O)c3ccc(F)cn3)C([2H])([2H])C2)c2ccc(-c3ccccc3C3CC3)cc21 (stereo not shown) [Example 11, (5-(2-cyclopropylphenyl)-3-hydroxy-2,3-dihydrospiro[indene-1,3′-pyrrolidine]-1′-yl-3,5′,5′-d3)(5-fluoropyridin-2-yl) ketone]"
5,70 to 100%,"O=C(c1cccc(Cl)n1)N1CCC2(CC(O)c3cc(-c4ccccc4C4CC4)ccc32)C1 (stereo not shown) [Example 51, (6-chloropyridin-2-yl)(5-(2-cyclopropylphenyl)-3-hydroxy-2,3-dihydrospiro[indene-1,3′-pyrrolidine]-1′-yl)ketone]"
6,25 to 50%,"CC(C)(O)c1ccccc1-c1ccc2c(c1)C(O)CC21CCN(C(=O)c2ccc(F)cn2)C1 (stereo not shown) [Example 89, (5-fluoropyridin-2-yl)(3-hydroxy-5-(2-(2-hydroxypropyl-2-)phenyl)-2,3-dihydrospiro[indene-1,3′-pyrrolidine]-1′-yl) ketone]"
7,< 25%,"CC(C)c1ccccc1-c1ccc2c(c1)[C@H](O)C[C@]21CCN(C(=O)c2cccc(C3CC3)n2)C1 [Example 42, (6-cyclopropylpyridin-2-yl)((1R,3R)-3-hydroxy-5-(2-isopropylphenyl)-2,3-dihydrospiro[indene-1,3′-pyrrolidine]-1′-yl)ketone]"
8,< 25%,"CC(C)c1ccccc1-c1ccc2c(c1)C(O)CC21CCN(Cc2ccc(F)cn2)C1 (stereo not shown) [Example 134, 1′-((5-fluoropyridin-2-yl)methyl)-5-(2-isopropylphenyl)-2,3-dihydrospiro[indene-1,3′-pyrrolidine]-3-ol]"
9,70 to 100%,"OC1CC2(CCN(c3cnc4cc(Cl)ccn34)C2)c2ccc(-c3ccccc3C3CC3)cc21 (stereo not shown) [Example 152, 5-(2-cyclopropylphenyl)-1′-(7-chloroimidazo[1,2-a]pyridin-3-yl)-2,3-dihydrospiro[indene-1,3′-pyrrolidine]-3-ol]"
10,70 to 100%,"CNc1cncc(C(=O)N2CCC3(CC(O)c4cc(-c5ccccc5C5CC5)ccc43)C2)n1 (stereo not shown) [Example 48, (5-(2-cyclopropylphenyl)-3-hydroxy-2,3-dihydrospiro[indene-1,3′-pyrrolidine]-1′-yl)(6-(methylamino)pyrazin-2-yl) ketone]"
11,< 25%,"O=C(c1ccc(F)cn1)N1CCC2(C[C@H](O)c3cc(-c4ccccc4C4CC4)ccc32)C1 (stereo partly drawn) [Example 46, ((3S)-5-(2-cyclopropylphenyl)-3-hydroxy-2,3-dihydrospiro[indene-1,3′-pyrrolidine]-1′-yl)(5-fluoropyridin-2-yl) ketone]"
12,70 to 100%,"CC(C)c1ccccc1-c1ccc2c(c1)C(O)CC21CCN(C(=O)c2ccc(F)cc2)C1 (stereo not shown) [Example 61, (4-fluorophenyl)(3-hydroxy-5-(2-isopropylphenyl)-2,3-dihydrospiro[indene-1,3′-pyrrolidine]-1′-yl)ketone]"
13,< 25%,CC(C)c1ccccc1-c1ccc2c(c1)[C@@H](O)C[C@]21CCN(C(=O)c2ccc(F)cn2)C1 [Example 27]
14,70 to 100%,"[2H]C1(O)CC2(CCN(C(=O)c3ccc(F)cn3)C2)c2ccc(-c3ccccc3C3CC3)cc21 (stereo not shown) [Example 12, (5-(2-cyclopropylphenyl)-3-hydroxy-2,3-dihydrospiro[indene-1,3′-pyrrolidine]-1′-yl-3-d)(5-fluoropyridin-2-yl) ketone]"
15,< 25%,"O=C(c1csc(Cl)n1)N1CC[C@@]2(C[C@H](O)c3cc(-c4ccccc4C4CC4)ccc32)C1 [Example 31, (2-chlorothiazol-4-yl)((1S,3S)-5-(2-cyclopropylphenyl)-3-hydroxy-2,3-dihydrospiro[indene-1,3′-pyrrolidine]-1′-yl)ketone]"
16,< 25%,"O=C(c1csc(Cl)n1)N1CC[C@]2(C[C@H](O)c3cc(-c4ccccc4C4CC4)ccc32)C1 [Example 32, (2-chlorothiazol-4-yl)((1R,3S)-5-(2-cyclopropylphenyl)-3-hydroxy-2,3-dihydrospiro[indene-1,3′-pyrrolidine]-1′-yl)ketone]"
17,50 to 70%,"O=C(c1ncccc1Cl)N1CCC2(CC(O)c3cc(-c4ccccc4C4CC4)ccc32)C1 (stereo not shown) [Example 52, (3-chloropyridin-2-yl)(5-(2-cyclopropylphenyl)-3-hydroxy-2,3-dihydrospiro[indene-1,3′-pyrrolidine]-1′-yl)ketone]"
18,< 25%,"CC(C)c1ccccc1-c1ccc2c(c1)[C@@H](O)C[C@@]21CCN(C(=O)c2cccc(C3CC3)n2)C1 [Example 43, (6-cyclopropylpyridin-2-yl)((1S,3S)-3-hydroxy-5-(2-isopropylphenyl)-2,3-dihydrospiro[indene-1,3′-pyrrolidine]-1′-yl)ketone]"
19,< 25%,"O=C(c1ccc(F)cn1)N1CC[C@@]2(C[C@H](O)c3cc(-c4ccccc4C4CC4)ccc32)C1 [Example 24, ((1S,3S)-5-(2-cyclopropylphenyl)-3-hydroxy-2,3-dihydrospiro[indene-1,3′-pyrrolidine]-1′-yl)(5-fluoropyridin-2-yl)ketone]"
20,< 25%,"O=C(c1cccc(C2CC2)n1)N1CC[C@]2(C[C@H](O)c3cc(-c4ccccc4C4CC4)ccc32)C1 [Example 40, ((1R,3S)-5-(2-cyclopropylphenyl)-3-hydroxy-2,3-dihydrospiro[indene-1,3′-pyrrolidine]-1′-yl)(6-cyclopropylpyridin-2-yl) ketone]"
21,25 to 50%,"O=C(c1ccc(F)cn1)N1CCC2(CC1)CC(O)c1cc(-c3ccccc3C3CC3)ccc12 (stereo not shown) [Example 3, (5-(2-cyclopropylphenyl)-3-hydroxy-2,3-dihydrospiro[indene-1,4′-piperidine]-1′-yl)(5-fluoropyridin-2-yl) ketone]"
22,25 to 50%,"O=C(c1ccc(Cl)cn1)N1CCC2(C1)OB(O)c1cc(-c3ccccc3C3CC3)ccc12 (stereo not shown) [Example 10, (5-chloropyridin-2-yl)(6-(2-cyclopropylphenyl)-1-hydroxy-1H-spiro[benzo[c][1,2]oxaborolane-3,3′-pyrrolidine]-1′-yl) ketone]"
